Experimental data from PMC9653733, “Characterization of a Potent, Selective, and Safe Inhibitor, Ac15(Az8)2, in Reversing Multidrug Resistance Mediated by Breast Cancer Resistance Protein (BCRP/ABCG2)” (International Journal of Molecular Sciences, 2022).

Experiments:
[1] = target: T1, P-gp (LCC6MDR cells) (Homo sapiens, UniProt P08183); experiment: Reversal of P-gp-mediated paclitaxel resistance in LCC6MDR; format: cell-based; conditions: value without asterisk; read-out: EC50 needed for reversing P-gp-mediated paclitaxel resistance, LCC6MDR
T1 construct: expressed in transfected cells; host or cells: LCC6MDR (human breast cancer line)
T1 sequence (P08183 whole entry): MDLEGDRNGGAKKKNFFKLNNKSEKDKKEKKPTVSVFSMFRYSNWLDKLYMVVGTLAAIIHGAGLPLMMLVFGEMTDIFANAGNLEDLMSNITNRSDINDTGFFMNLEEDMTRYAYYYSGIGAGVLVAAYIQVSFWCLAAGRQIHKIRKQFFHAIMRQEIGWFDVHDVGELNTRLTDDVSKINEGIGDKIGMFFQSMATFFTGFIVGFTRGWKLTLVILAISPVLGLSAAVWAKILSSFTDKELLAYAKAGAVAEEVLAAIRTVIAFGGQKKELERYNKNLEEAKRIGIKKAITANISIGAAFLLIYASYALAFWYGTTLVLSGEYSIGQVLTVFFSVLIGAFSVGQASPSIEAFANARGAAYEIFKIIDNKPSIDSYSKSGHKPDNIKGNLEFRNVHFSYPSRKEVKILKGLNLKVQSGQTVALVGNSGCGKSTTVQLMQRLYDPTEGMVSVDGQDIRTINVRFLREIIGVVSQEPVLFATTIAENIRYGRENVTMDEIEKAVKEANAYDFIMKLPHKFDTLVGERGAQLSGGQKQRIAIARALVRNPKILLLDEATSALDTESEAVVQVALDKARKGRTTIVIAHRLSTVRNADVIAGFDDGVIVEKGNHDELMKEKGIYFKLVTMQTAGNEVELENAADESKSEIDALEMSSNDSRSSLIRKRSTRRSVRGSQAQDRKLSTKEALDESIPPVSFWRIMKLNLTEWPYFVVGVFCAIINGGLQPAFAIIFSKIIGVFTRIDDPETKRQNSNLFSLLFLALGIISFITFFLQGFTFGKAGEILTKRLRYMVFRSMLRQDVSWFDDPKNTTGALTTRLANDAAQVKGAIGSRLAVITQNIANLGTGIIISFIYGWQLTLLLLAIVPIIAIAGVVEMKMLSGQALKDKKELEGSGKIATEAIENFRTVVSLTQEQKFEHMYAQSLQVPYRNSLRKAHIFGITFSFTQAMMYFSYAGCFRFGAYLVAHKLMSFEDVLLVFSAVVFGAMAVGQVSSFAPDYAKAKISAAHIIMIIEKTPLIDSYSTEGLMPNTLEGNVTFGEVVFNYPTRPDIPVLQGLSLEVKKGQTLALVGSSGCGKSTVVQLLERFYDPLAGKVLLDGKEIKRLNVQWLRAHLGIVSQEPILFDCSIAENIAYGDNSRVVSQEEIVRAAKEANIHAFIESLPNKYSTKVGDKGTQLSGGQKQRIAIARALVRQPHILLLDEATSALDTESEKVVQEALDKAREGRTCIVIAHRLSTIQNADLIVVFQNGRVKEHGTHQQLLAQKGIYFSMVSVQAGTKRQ

[2] = system: L929; experiment: Cytotoxicity towards normal mouse fibroblast cells L929; format: cell-based; conditions: value without asterisk
[3] = Pharmacokinetics of Ac15(Az8)2 in mice; format: in vivo; conditions: female, Balb/c, mouse, ip, 45 mg/kg I.P., plasma
Description: (§1) Ac15(Az8)2 and topotecan in plasma were analyzed by UPLC–MS/MS. UPLC (Acquity Waters) and triple quadrupole mass analyzer (Quattro Ultima) with an electrospray ionization source in the positive mode were used to quantify Ac15(Az8)2 and topotecan. Acquity UPLC BEH C8 and C18 column (1.7 µm 2.1 × 50 mm) from Waters was used to separate Ac15(Az8)2 and topotecan, respectively. Mobile phases used for Ac15(Az8)2 analysis were water and acetonitrile. Ac15(Az8)2 and its internal standard Ac15(Az5)2 (Figure S2) were monitored at m/z 608 → m/z 149 and m/z 594 → […], respectively. Mobile phases used for topotecan analysis were water and methanol. Topotecan and its internal standard tetracycline were monitored at m/z 422 → m/z 377 and m/z 445 → m/z 410, respectively.
(§2) Female Balb/c mice at 4–6 weeks were used for the pharmacokinetic studies. Ac15(Az8)2 at 4 mg/mL was prepared in 10% NMP, 10% Cremophor-EL and 80% H2O. Topotecan was dissolved in H2O at 1 mg/mL, and 45 mg/kg Ac15(Az8)2 was administered through intraperitoneal (I.P.) injection. Blood was collected at 10, 30, 60, 70, 90, 120, 180, 240, 300, 480, 720 and 1440 min by cardiac puncture and stored in heparinized tubes for centrifugation at 16,000 g for 5 min. For topotecan pharmacokinetic study, 2 mg/kg topotecan was I.P. administered one hour after 45 mg/kg Ac15(Az8)2 or solvent injection. Blood was collected at 10, 30, 60, 120, 240 and 480 min post-topotecan administration. All animal studies were approved by the Animal Subjects Ethics Sub-committee of the Hong Kong Polytechnic University and performed in accordance with the Cap340 Animal License of the Department of Health in Hong Kong.

[4] = system: S1M180 xenograft
Text: (§3) (A) S1 xenograft. (B) S1M180 xenograft. There were 3 treatment groups in S1 and S1M180 xenograft model. Treatments were given as indicated by an arrow (↑). % of tumor volume reduction was compared among different treatment groups on days 55 and 71. a, b, and c = mean tumor volume of solvent control, topotecan alone, and combination treatment groups on day 55, respectively. d and e = mean tumor volume of topotecan alone and combination treatment groups on day 71. (C) Tumor weight of S1M180-bearing mice on termination day. (D) % change of tumor volume and tumor doubling time of S1M180 xenograft were determined on days 55 and 71. […] Number of animal death was monitored during the efficacy study. (E) Body weight of S1M180-bearing mice. (F) To measure plasma and intratumor level of topotecan, S1M180-bearing mice were administered with 45 mg/kg (I.P.) of Ac15(Az8)2 one hour prior to 6 mg/kg (I.P.) of topotecan administration. Five hours after topotecan administration, the mice were sacrificed. Plasma and tumor were collected for analyzing topotecan level using UPLC–MS/MS. Student’s unpaired two-tailed t-test was performed between combination group and topotecan alone group or solvent control group as indicated (* p < 0.05, ** p < 0.01, *** p < 0.001).
Ten million of S1M180 cells were injected subcutaneously into Balb/c nu nu mice (Beijing Vital River Laboratory Animal Technology Co., Ltd., Beijing, China). Mice with solid tumors formed were sacrificed. The tumor was removed and cut into 1 mm^3 and xenografted subcutaneously onto another Balb/c nu nu mouse for passage or efficacy study. Treatment of nude mice started when the xenograft reached 100–150 mm^3. The mice were randomized into 3 groups (n = 7 mice per group). Group (1) was treated with Ac15(Az8)2 solvent (I.P.) and topotecan solvent (I.P.), group (2) was treated with Ac15(Az8)2 solvent (I.P.) and topotecan (2 mg/kg, I.P.), group (3) was treated with Ac15(Az8)2 (45 mg/kg, I.P.) and topotecan (2 mg/kg, I.P.). The formulation used was the same as that of the pharmacokinetic study. S1M180-bearing nude mice were treated for 4 rounds. In each round, they were treated once every two days 6 times, allowed to rest for 7 days, and treated again. […] The body weights of mice were monitored throughout the experiment. Tumor dimensions were measured by an electronic caliper, and the tumor volume was calculated as reported previously.

[5] = system: S1M180 xenograft; experiment: In vivo topotecan accumulation in tumor and plasma of S1M180-bearing mice; conditions: 45 mg/kg Ac15(Az8)2 I.P. one hour prior to 6 mg/kg topotecan I.P.; 5 h post administration
Text: as §3

[6] = system: S1 cells; experiment: Cytotoxicity of anticancer drugs in parental S1 (0.1% DMSO); format: cell-based, human
[7] = Pharmacokinetics of topotecan in mice with or without Ac15(Az8)2; format: in vivo; conditions: female, Balb/c, mouse, plasma, ip, topotecan 2 mg/kg I.P.; for AUC(0-inf) / Cmax / half-life: 2 mg/kg; for half-life: read-out: Half-life (E-phase) of topotecan (converted)
Description: as §1, §2

[8] = 45 mg/kg Ac15(Az8)2 + 2 mg/kg topotecan
[9] = 45 mg/kg Ac15(Az8)2 I.P. one hour prior

Row | SMILES | EC50 [1] [µM] | IC50 [2] [µM] | AUC(0-inf) [3] [ng·h/mL] | Cmax [3] [ng/mL] | Tmax [3] [h] | half-life ([3]; read-out: Half-life (E-phase) (converted)) [min] | Lengthening of tumor doubling time by combination treatment vs solvent group [4, 8] [days] | Lengthening of tumor doubling time by combination treatment vs topotecan alone [4, 8] [days] | Reduction of tumor weight by combination treatment vs solvent group ([4]; termination day, p < 0.001) [fold] | Reduction of tumor weight by combination treatment vs topotecan alone ([4]; termination day, p < 0.01) [fold] | Effect on plasma level of topotecan [5] | IC50 ([6]; Homo sapiens, S1 + 0.1% DMSO, mean ± S.D., n = 3, read-out: IC50 of topotecan) [nM] | RF (Relative Fold), topotecan: resistance of S1M180 compared to parental S1 ([6]; S1 + 0.1% DMSO vs S1M180 + 0.1% DMSO) | AUC(0-inf) [7, 9] [ng·h/mL] | Cmax [7, 9] [ng/mL] | half-life [7, 9] [min] | AUC(0-inf) ([7]; Ac15(Az8)2 0 mg/kg (solvent)) [ng·h/mL] | Cmax ([7]; Ac15(Az8)2 0 mg/kg (solvent)) [ng/mL] | half-life ([7]; Ac15(Az8)2 0 mg/kg (solvent)) [min] | Tmax [7, 9] [h]
1 | COC(=O)c1cccc(COc2c(-c3ccc(OCCOCCn4cc(CN(Cc5ccccc5)Cc5cn(CCOCCOc6ccc(-c7oc8ccccc8c(=O)c7OCc7cccc(C(=O)OC)c7)cc6)nn5)nn4)cc3)oc3ccccc3c2=O)c1 [Ac15(Az8)2] | > 3 | > 500 | 83500 | 15700 | 3 | 636 | 4.6 | 1.8 | 1.9 | 1.6 | did not change significantly | – | – | – | – | – | – | – | – | –
2 | CC[C@@]1(O)C(=O)OCc2c1cc1n(c2=O)Cc2cc3c(CN(C)C)c(O)ccc3nc2-1 [topotecan] | – | – | – | – | – | – | – | – | – | – | – | 446 ± 20 | 27.9 | 8700 | 4400 | 96 | 4400 | 2900 | 78 | 1
